Results published in ChEMBL document CHEMBL1145354, “Benzopyran sulfonamides as KV1.5 potassium channel blockers” (Bioorg Med Chem Lett, 2007).

Legend:
[1] = target: hERG (KCNH2) (Homo sapiens, UniProt Q12809); assay: Inhibition of human ERG expressed in human embryonic kidney cells at 10 uM; type: cell-based; conditions: human embryonic kidney cells expressing human ERG
[2] = target: Potassium voltage-gated channel subfamily A member 5 (Homo sapiens, UniProt P22460); assay: Inhibition of human Kv1.5 channel expressed in mouse L929 cells; type: cell-based
Sequence of Potassium voltage-gated channel subfamily A member 5 (P22460 whole entry): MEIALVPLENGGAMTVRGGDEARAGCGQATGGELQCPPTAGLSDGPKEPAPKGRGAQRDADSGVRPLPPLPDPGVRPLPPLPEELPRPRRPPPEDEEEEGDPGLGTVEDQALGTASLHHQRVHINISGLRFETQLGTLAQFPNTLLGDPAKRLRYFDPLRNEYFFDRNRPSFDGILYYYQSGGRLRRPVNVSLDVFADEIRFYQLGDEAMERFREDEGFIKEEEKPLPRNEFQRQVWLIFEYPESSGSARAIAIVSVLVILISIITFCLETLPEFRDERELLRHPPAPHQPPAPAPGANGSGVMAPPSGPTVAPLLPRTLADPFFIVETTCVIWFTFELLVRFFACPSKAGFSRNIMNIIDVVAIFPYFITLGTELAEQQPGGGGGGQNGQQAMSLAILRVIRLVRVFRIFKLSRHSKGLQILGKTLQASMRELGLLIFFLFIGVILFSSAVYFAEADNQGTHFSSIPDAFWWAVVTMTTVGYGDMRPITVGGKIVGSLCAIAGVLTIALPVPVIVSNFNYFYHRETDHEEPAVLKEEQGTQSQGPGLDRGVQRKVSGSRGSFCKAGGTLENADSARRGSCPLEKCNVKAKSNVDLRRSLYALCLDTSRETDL

Sequence of hERG (KCNH2) (Q12809 whole entry): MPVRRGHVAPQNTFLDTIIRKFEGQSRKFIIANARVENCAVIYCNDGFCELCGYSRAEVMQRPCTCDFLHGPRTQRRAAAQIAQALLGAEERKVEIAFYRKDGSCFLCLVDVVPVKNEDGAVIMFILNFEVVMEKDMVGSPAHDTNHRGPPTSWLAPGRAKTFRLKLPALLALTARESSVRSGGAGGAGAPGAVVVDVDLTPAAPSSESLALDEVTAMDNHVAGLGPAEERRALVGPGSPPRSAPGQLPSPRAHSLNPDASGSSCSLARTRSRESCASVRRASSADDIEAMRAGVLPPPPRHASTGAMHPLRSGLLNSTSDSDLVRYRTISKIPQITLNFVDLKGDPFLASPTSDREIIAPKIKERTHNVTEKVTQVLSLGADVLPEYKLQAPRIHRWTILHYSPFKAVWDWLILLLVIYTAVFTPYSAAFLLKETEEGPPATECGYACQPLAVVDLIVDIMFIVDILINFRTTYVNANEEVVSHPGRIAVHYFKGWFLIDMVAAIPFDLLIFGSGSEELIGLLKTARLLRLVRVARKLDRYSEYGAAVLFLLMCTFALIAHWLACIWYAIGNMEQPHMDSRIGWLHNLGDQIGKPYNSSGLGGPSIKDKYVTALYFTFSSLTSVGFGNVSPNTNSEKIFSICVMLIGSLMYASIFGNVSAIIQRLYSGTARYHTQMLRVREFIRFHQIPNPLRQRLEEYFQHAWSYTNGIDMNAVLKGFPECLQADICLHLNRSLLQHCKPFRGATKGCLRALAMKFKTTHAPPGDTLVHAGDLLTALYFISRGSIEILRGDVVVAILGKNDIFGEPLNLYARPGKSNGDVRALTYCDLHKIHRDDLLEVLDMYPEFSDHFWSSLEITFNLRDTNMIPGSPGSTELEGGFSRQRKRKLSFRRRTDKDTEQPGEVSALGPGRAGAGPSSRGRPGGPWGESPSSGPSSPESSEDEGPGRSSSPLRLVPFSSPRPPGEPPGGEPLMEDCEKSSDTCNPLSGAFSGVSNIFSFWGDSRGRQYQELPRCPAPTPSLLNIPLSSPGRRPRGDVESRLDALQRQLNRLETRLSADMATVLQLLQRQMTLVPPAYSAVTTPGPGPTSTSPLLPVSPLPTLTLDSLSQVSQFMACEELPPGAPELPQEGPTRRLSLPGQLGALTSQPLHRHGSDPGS

| Structure (SMILES) | inhibition at 10 µM [1] | IC50 [2] |
| --- | --- | --- |
| CCc1ccc(S(=O)(=O)N[C@@H]2c3cc(C(=O)N(CC)Cc4ccccc4F)ccc3OC(C)(C)[C@H]2O)cc1 | 7% | 170 nM |
| CCc1ccc(S(=O)(=O)N[C@@H]2c3cc(C(=O)NCCc4ccccc4)ccc3OC(C)(C)[C@H]2O)cc1 |  | 260 nM |
| CCc1ccc(S(=O)(=O)N[C@@H]2c3cc(C(=O)N(CC)CCNc4ccccc4)ccc3OC(C)(C)[C@H]2O)cc1 | 39% | 77 nM |
| CCc1ccc(S(=O)(=O)N[C@@H]2c3cc(C(=O)NCCc4ccccn4)ccc3OC(C)(C)[C@H]2O)cc1 |  | > 1000 nM |
| CC1(C)Oc2ccc(C(=O)NCCc3ccccc3)cc2[C@@H](NS(=O)(=O)c2ccccc2)[C@@H]1O |  | > 1000 nM |
| Cc1ccc(S(=O)(=O)N[C@@H]2c3cc(C(=O)NCCc4ccccc4)ccc3OC(C)(C)[C@H]2O)cc1 |  | 400 nM |
| Cc1cccc(S(=O)(=O)N[C@@H]2c3cc(C(=O)NCCc4ccccc4)ccc3OC(C)(C)[C@H]2O)c1 |  | 340 nM |
| CC1(C)Oc2ccc(C(=O)NCCc3ccccc3)cc2[C@@H](NS(=O)(=O)c2ccccc2OC(F)(F)F)[C@@H]1O |  | 150 nM |
| CCc1ccc(S(=O)(=O)N[C@H]2c3cc(C(=O)NCCc4ccccc4)ccc3OC(C)(C)[C@@H]2O)cc1 |  | > 1000 nM |
| CCc1ccc(S(=O)(=O)N[C@H]2c3cc(C(=O)N4CCC[C@@H]4CNc4c(C)cccc4C)ccc3OC(C)(C)[C@@H]2O)cc1 |  | 89 nM |
| CCc1ccc(S(=O)(=O)N[C@H]2CC(C)(C)Oc3ccc(C(=O)N4CCC[C@H]4CNc4c(C)cccc4C)cc32)cc1 | 51% | 110 nM |
| CCc1ccc(S(=O)(=O)N[C@@H]2c3cc(C(=O)N(CC)[C@@H]4CCN(Cc5ccccc5)C4)ccc3OC(C)(C)[C@H]2O)cc1 |  | 210 nM |
| CCc1ccc(S(=O)(=O)N[C@@H]2c3cc(C(=N)NCCc4ccccc4)ccc3OC(C)(C)[C@H]2O)cc1 |  | > 10000 nM |
| CCc1ccc(S(=O)(=O)N(Cc2ccccn2)[C@@H]2c3cc(C(=O)NCCc4ccccc4)ccc3OC(C)(C)[C@H]2O)cc1 |  | 120 nM |
| CCc1ccc(S(=O)(=O)N[C@@H]2c3cc(C(=O)N4CCC[C@@H]4CNc4c(C)cccc4C)ccc3OC(C)(C)[C@H]2O)cc1 |  | 130 nM |
| CC1(C)Oc2ccc(C(=O)NCCc3ccccc3)cc2[C@@H](NS(=O)(=O)c2ccc(F)cc2)[C@@H]1O |  | > 1000 nM |
| COc1ccc(S(=O)(=O)N[C@@H]2c3cc(C(=O)NCCc4ccccc4)ccc3OC(C)(C)[C@H]2O)cc1 |  | > 1000 nM |
| CCc1ccc(S(=O)(=O)N(Cc2cccnc2)[C@@H]2c3cc(C(=O)NCCc4ccccc4)ccc3OC(C)(C)[C@H]2O)cc1 | 61% | 130 nM |
| CCCCN([C@@H]1c2cc(C(=O)NCCc3ccccc3)ccc2OC(C)(C)[C@H]1O)S(=O)(=O)c1ccc(CC)cc1 | 35% | 57 nM |

| Structure (SMILES) | inhibition at 10 µM [1] | IC50 [2] |
| --- | --- | --- |
| CCc1ccc(S(=O)(=O)N(Cc2cnc[nH]2)[C@@H]2c3cc(C(=O)NCCc4ccccc4)ccc3OC(C)(C)[C@H]2O)cc1 |  | 280 nM |
| CCc1ccc(S(=O)(=O)N(CC(C)(C)C)[C@@H]2c3cc(C(=O)NCCc4ccccc4)ccc3OC(C)(C)[C@H]2O)cc1 |  | 120 nM |
| CCc1ccc(S(=O)(=O)N[C@@H]2c3cc(NC(=O)c4cccc(OC)c4)ccc3OC(C)(C)[C@H]2O)cc1 | 40% | 290 nM |
| CCc1ccc(S(=O)(=O)N[C@@H]2c3cc(C(=O)Nc4cccc(OC)c4)ccc3OC(C)(C)[C@H]2O)cc1 |  | > 10000 nM |
| CCc1ccc(S(=O)(=O)N[C@@H]2c3cc(C(=O)Nc4ccccc4)ccc3OC(C)(C)[C@H]2O)cc1 |  | 260 nM |
| CCc1ccc(S(=O)(=O)N[C@@H]2c3cc(NC(=O)c4cccc(OC)c4)ccc3C[C@H]2O)cc1 | 21% |  |
| CCc1ccc(S(=O)(=O)N[C@@H]2c3cc(CNCCc4ccccc4)ccc3OC(C)(C)[C@H]2O)cc1 |  | 240 nM |
| CCc1ccc(S(=O)(=O)N[C@@H]2c3cc(C(=O)N4CCC[C@H]4CNc4c(C)cccc4C)ccc3OC(C)(C)[C@H]2O)cc1 | 9% | 120 nM |
| CCc1ccc(S(=O)(=O)N[C@@H]2c3cc(C(=O)N(C)c4ccccc4)ccc3OC(C)(C)[C@H]2O)cc1 |  | 280 nM |
| CCc1ccc(S(=O)(=O)N[C@@H]2c3cc(C(=O)n4nc(-c5ccccc5)cc4N)ccc3OC(C)(C)[C@H]2O)cc1 | 47% | 79 nM |
| CCc1ccc(S(=O)(=O)N[C@@H]2c3cc(C(=O)N(CC)[C@H]4CCN(Cc5ccccc5)C4)ccc3OC(C)(C)[C@H]2O)cc1 |  | 170 nM |
| CCc1ccc(S(=O)(=O)N[C@H]2c3cc(C(=O)N4CCC[C@H]4CNc4c(C)cccc4C)ccc3OC(C)(C)[C@@H]2O)cc1 |  | 260 nM |
| CCc1ccc(S(=O)(=O)N[C@H]2c3cc(C(=O)N(CC)[C@@H]4CCN(Cc5ccccc5)C4)ccc3OC(C)(C)[C@@H]2O)cc1 |  | 220 nM |
| CCc1ccc(S(=O)(=O)N[C@@H]2c3cc(C(=O)NCCc4c[nH]cn4)ccc3OC(C)(C)[C@H]2O)cc1 |  | > 10000 nM |
| CC1(C)Oc2ccc(C(=O)NCCc3ccccc3)cc2[C@@H](NS(=O)(=O)c2ccc(C(F)(F)F)cc2)[C@@H]1O |  | 200 nM |
| CCc1ccc(S(=O)(=O)N[C@@H]2c3cc(S(=O)(=O)NCCc4ccccc4)ccc3OC(C)(C)[C@H]2O)cc1 |  | 510 nM |
| CC1(C)Oc2ccc(C(=O)NCCc3ccccc3)cc2[C@@H](NS(=O)(=O)c2ccc([N+](=O)[O-])cc2)[C@@H]1O |  | > 1000 nM |
| CCc1ccc(S(=O)(=O)N(CC(C)C)[C@@H]2c3cc(C(=O)NCCc4ccccc4)ccc3OC(C)(C)[C@H]2O)cc1 |  | 320 nM |
| CCc1ccc(S(=O)(=O)N[C@H]2c3cc(C(=O)N(CC)[C@H]4CCN(Cc5ccccc5)C4)ccc3OC(C)(C)[C@@H]2O)cc1 | 80% | 200 nM |
